Experimental data as given in patent US20080171095A1, “Carnosine-related compounds for preventing and treating impaired neurovascular blood flow” (Michigan State University, priority 2005, published 2008).

Test system: Male C57BL/6J mice, permanent occlusion of the middle cerebral artery (focal ischemia)
Experiment: Focal ischemia in mice: permanent occlusion of the middle cerebral artery, infarct volume by 2,3,5-triphenyl-tetrazolium chloride staining
Assay type: in vivo
Conditions: assessed 24 hours after occlusion; for Reduction of infarct volume versus saline-injected control mice: 30 minutes before artery occlusion (FIG. 1)
Protocol: Male C57BL/6J mice were subjected to a permanent occlusion of the middle cerebral artery. For prophylactic studies, carnosine (100 mg/kg or 500 mg/kg, I.P.) was administered thirty (30) minutes (FIG. 1) or sixty (60) minutes (FIG. 2) before artery occlusion. For treatment studies, carnosine (1000 mg/kg, I.P.) was administered sixty (60) minutes after artery occlusion (FIG. 2).
Damage to the neural tissue (i.e., infarct volume) was assessed twenty-four (24) hours after occlusion by 2,3,5-triphenyl-tetrazolium chloride staining. Infarct volumes were reduced by 49% and 65% in mice prophylactically given 100 mg/kg and 500 mg/kg carnosine, respectively, versus saline-injected control mice. (FIG. 1) This protective dose dependence was reproduced in a second experiment that compared a post-occlusion carnosine administration. In this experiment, infarct volumes were reduced by 40% and 52%, respectively in mice prophylactically given 100 mg/kg and 500 mg/kg carnosine. A 40% reduction in infarct volume was also observed when mice were administered 1000 mg/kg carnosine after the occlusion.

NCCC(=O)N[C@@H](Cc1c[nH]cn1)C(=O)O [carnosine, β-alanyl-L-histidine]
Reduction of infarct volume versus saline-injected control mice (100 mg/kg I.P., prophylactic): 49% | Reduction of infarct volume versus saline-injected control mice (500 mg/kg I.P., prophylactic): 65% | Reduction of infarct volume (second experiment (FIG. 2): 100 mg/kg I.P., prophylactic, 60 minutes before artery occlusion): 40% | Reduction of infarct volume (second experiment (FIG. 2): 500 mg/kg I.P., prophylactic, 60 minutes before artery occlusion): 52% | Reduction of infarct volume (second experiment (FIG. 2): 1000 mg/kg I.P., treatment, 60 minutes after artery occlusion): 40%
